Legend:
Assay type in all cases: in vivo
slender amaranth (Am) [1] = assay: Test Example 7: crop plant selectivity by upland field soil treatment (corn), herbicidal effects; set-up: scale not given here; conditions: dose 6.3 g ai/10a, 21st day after application
Method: (§1) (Test on Crop Plant Selectivity by Upland Field Soil Treatment)
(§2) In a plastic pot (surface area: 600 cm^2) filled with sand, corn (Ze), green foxtail (Se), pale smartweed (Po), slender amaranth (Am), common lambsquarters (Ch) and China jute (Ab) were sown and covered with soil. […] The plants were then cultured in a green house, and the evaluation of the herbicidal effects and phytotoxicity was conducted on the 21st day after the application in accordance with the standards as identified in Table 47.

green foxtail (Se) [2] = assay: as above; set-up: scale not given here; conditions: dose 6.3 g ai/10a, 21st day after application
Method: as §1, §2

[3] = test system: common lambsquarters (Ch); assay: as above; set-up: scale not given here; conditions: dose 6.3 g ai/10a, 21st day after application
Method: as §1, §2

pale smartweed (Po) [4] = assay: as above; set-up: scale not given here; conditions: dose 6.3 g ai/10a, 21st day after application
Method: as §1, §2

China jute (Ab) [5] = assay: as above; set-up: scale not given here; conditions: dose 6.3 g ai/10a, 21st day after application
Method: as §1, §2

soybean (Gl) = assay: Test Example 6: crop plant selectivity by upland field soil treatment (soybean), phytotoxicity; set-up: scale not given here; conditions: dose 6.3 g ai/10a, 21st day after application
Outline: (§3)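 Soybean and weed seeds were sown in sand-filled pots and covered with soil, then given a pre-emergence soil application. Plants were grown on in a greenhouse, and herbicidal effect and crop phytotoxicity were scored against a set rating scale 21 days after application.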

slender amaranth (Am) [6] = assay: Test Example 2: herbicidal effects by upland field soil treatment; conditions: 100 g of the active ingredient per 10 ares, evaluated on the 21st day after application;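 also: grade of growth control; 5 = at least 90%; 4 = 70 to 90%; 3 = 50 to 70%; 2 = 30 to 50%; 1 = 10 to 30%; 0 = under 10%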
Text: (§4) (Test on Herbicidal Effects by Upland Field Soil Treatment)

barnyardgrass (Ec) [7] = assay: as above; conditions: 100 g of the active ingredient per 10 ares, evaluated on the 21st day after application
Text: as §4

rice flatsedge (Ci) [8] = assay: as above; conditions: 100 g of the active ingredient per 10 ares, evaluated on the 21st day after application
Text: as §4

Digitaria ciliaris (Di) = assay: as above; conditions: 100 g of the active ingredient per 10 ares, evaluated on the 21st day after application;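 also: grade of growth control; 5 = at least 90%; 4 = 70 to 90%; 3 = 50 to 70%; 2 = 30 to 50%; 1 = 10 to 30%; 0 = under 10%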
Text: as §4

[9] = test system: common lambsquarters (Ch); assay: as above; conditions: 100 g of the active ingredient per 10 ares, evaluated on the 21st day after application
Text: as §4

pale smartweed (Po) [10] = assay: as above; conditions: 100 g of the active ingredient per 10 ares, evaluated on the 21st day after application
Text: as §4

bulrush (Sc) = assay: Test Example 1: herbicidal effects by paddy field soil treatment; conditions: 100 g of the active ingredient per 10 ares, 21st day after the application, index 0-5 of Table 47;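 also: grade of growth control; 5 = at least 90%; 4 = 70 to 90%; 3 = 50 to 70%; 2 = 30 to 50%; 1 = 10 to 30%; 0 = under 10%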
Outline: (§5)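 Scoring of herbicidal effect came 21 days after application of 100 g active ingredient per 10 ares to flooded (3 cm) paddy-soil pots sown with barnyardgrass, monochoria and bulrush, kept in a greenhouse.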

barnyardgrass (Ec) [11] = assay: as above; conditions: 100 g of the active ingredient per 10 ares, 21st day after the application, index 0-5 of Table 47
Outline: as §5

monochoria (Mo) = assay: as above; conditions: 100 g of the active ingredient per 10 ares, 21st day after the application, index 0-5 of Table 47;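 also: grade of growth control; 5 = at least 90%; 4 = 70 to 90%; 3 = 50 to 70%; 2 = 30 to 50%; 1 = 10 to 30%; 0 = under 10%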
Outline: as §5

slender amaranth (Am) [12] = assay: Test Example 6: crop plant selectivity by upland field soil treatment (soybean), herbicidal effects; set-up: scale not given here; conditions: dose 6.3 g ai/10a, 21st day after application
Outline: as §3

green foxtail (Se) [13] = assay: as above; set-up: scale not given here; conditions: dose 6.3 g ai/10a, 21st day after application
Outline: as §3

[14] = test system: common lambsquarters (Ch); assay: as above; set-up: scale not given here; conditions: dose 6.3 g ai/10a, 21st day after application
Outline: as §3

pale smartweed (Po) [15] = assay: as above; set-up: scale not given here; conditions: dose 6.3 g ai/10a, 21st day after application
Outline: as §3

China jute (Ab) [16] = assay: as above; set-up: scale not given here; conditions: dose 6.3 g ai/10a, 21st day after application
Outline: as §3

slender amaranth (Am) [17] = assay: Test Example 3: herbicidal effects by upland field foliage treatment; set-up: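 grade of growth control; 5 = at least 90%; 4 = 70 to 90%; 3 = 50 to 70%; 2 = 30 to 50%; 1 = 10 to 30%; 0 = under 10%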; conditions: 100 g active ingredient per 10 ares, evaluated 14th day after treatment
Outline: (§6)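 Using plants cultured for 2 weeks in a greenhouse from seed sown in soil-covered sand (pots 120 cm^2), the compounds were applied to foliage, and weed control was graded by standard criteria 14 days thereafter.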

barnyardgrass (Ec) [18] = assay: as above; set-up: scale not given here; conditions: 100 g active ingredient per 10 ares, evaluated 14th day after treatment
Outline: as §6

rice flatsedge (Ci) [19] = assay: as above; set-up: scale not given here; conditions: 100 g active ingredient per 10 ares, evaluated 14th day after treatment
Outline: as §6

Diaitaria ciliaris (Di) = assay: as above; set-up: scale not given here; conditions: 100 g active ingredient per 10 ares, evaluated 14th day after treatment
Outline: as §6

[20] = test system: common lambsquarters (Ch); assay: as above; set-up: scale not given here; conditions: 100 g active ingredient per 10 ares, evaluated 14th day after treatment
Outline: as §6

pale smartweed (Po) [21] = assay: as above; set-up: scale not given here; conditions: 100 g active ingredient per 10 ares, evaluated 14th day after treatment
Outline: as §6

slender amaranth (Am) [22] = assay: Test Example 5: crop plant selectivity by upland field soil treatment (wheat), herbicidal effects; set-up: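 grade of growth control; 5 = at least 90%; 4 = 70 to 90%; 3 = 50 to 70%; 2 = 30 to 50%; 1 = 10 to 30%; 0 = under 10%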; conditions: dose 6.3 g ai/10a, 21st day after application
Outline: (§7)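 Pots of sand sown with wheat and weeds (incl. Digitaria ciliaris, green foxtail, slender amaranth), seeds covered with soil, soil-applied treatment. Grown in greenhouse; herbicidal effect and crop phytotoxicity scored visually on day 21 after application against a rating scale.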

green foxtail (Se) [23] = assay: as above; set-up: scale not given here; conditions: dose 6.3 g ai/10a, 21st day after application
Outline: as §7

[24] = test system: common lambsquarters (Ch); assay: as above; set-up: scale not given here; conditions: dose 6.3 g ai/10a, 21st day after application
Outline: as §7

pale smartweed (Po) [25] = assay: as above; set-up: scale not given here; conditions: dose 6.3 g ai/10a, 21st day after application
Outline: as §7

China jute (Ab) [26] = assay: as above; set-up: scale not given here; conditions: dose 6.3 g ai/10a, 21st day after application
Outline: as §7

slender amaranth (Am) [27] = assay: Test Example 4: crop plant selectivity by upland field soil treatment (cotton), herbicidal effects; set-up: scale not given here; conditions: dose 6.3 g ai/10 a, evaluated 21st day after application
Outline: (§8)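 Upland soil treatment: crop and weed seeds in sand pots under a soil cover, compound applied to soil, greenhouse-grown, rated visually 21 d later.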

green foxtail (Se) [28] = assay: as above; set-up: scale not given here; conditions: dose 6.3 g ai/10 a, evaluated 21st day after application
Outline: as §8

[29] = test system: common lambsquarters (Ch); assay: as above; set-up: scale not given here; conditions: dose 6.3 g ai/10 a, evaluated 21st day after application
Outline: as §8

pale smartweed (Po) [30] = assay: as above; set-up: scale not given here; conditions: dose 6.3 g ai/10 a, evaluated 21st day after application
Outline: as §8

China jute (Ab) [31] = assay: as above; set-up: scale not given here; conditions: dose 6.3 g ai/10 a, evaluated 21st day after application
Outline: as §8

wheat (Tr) = assay: Test Example 5: crop plant selectivity by upland field soil treatment (wheat), phytotoxicity; set-up: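 grade of crop injury; 5 = at least 90%; 4 = 70 to 90%; 3 = 50 to 70%; 2 = 30 to 50%; 1 = 10 to 30%; 0 = under 10%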; conditions: dose 6.3 g ai/10a, 21st day after application
Outline: as §7

corn (Ze) = assay: Test Example 7: crop plant selectivity by upland field soil treatment (corn), phytotoxicity; set-up: scale not given here; conditions: dose 6.3 g ai/10a, 21st day after application
Method: as §1, §2

cotton (Go) = assay: Test Example 4: crop plant selectivity by upland field soil treatment (cotton), phytotoxicity; set-up: scale not given here; conditions: dose 6.3 g ai/10 a, evaluated 21st day after application
Outline: as §8

| Structure (SMILES) | Herbicidal effects Am (slender amaranth (Am) [1]) | Herbicidal effects Se (green foxtail (Se) [2]) | Herbicidal effects Ch [3] | Herbicidal effects Po (pale smartweed (Po) [4]) | Herbicidal effects Ab (China jute (Ab) [5]) | Phytotoxicity Gl (soybean (Gl)) | Herbicidal effects Am (slender amaranth (Am) [6]) | Herbicidal effects Ec (barnyardgrass (Ec) [7]) | Herbicidal effects Ci (rice flatsedge (Ci) [8]) | Herbicidal effects Di (Digitaria ciliaris (Di)) | Herbicidal effects Ch [9] | Herbicidal effects Po (pale smartweed (Po) [10]) | Herbicidal effects Sc (bulrush (Sc)) | Herbicidal effects Ec (barnyardgrass (Ec) [11]) | Herbicidal effects Mo (monochoria (Mo)) | Herbicidal effects Am (slender amaranth (Am) [12]) | Herbicidal effects Se (green foxtail (Se) [13]) | Herbicidal effects Ch [14] | Herbicidal effects Po (pale smartweed (Po) [15]) | Herbicidal effects Ab (China jute (Ab) [16]) | other results |
| --- | --- | --- | --- | --- | --- | --- | --- | --- | --- | --- | --- | --- | --- | --- | --- | --- | --- | --- | --- | --- | --- |
| CC(C)ON=Cc1cc(-c2ccc(C(F)(F)F)n(C)c2=O)c(F)cc1Cl [Compound 1-189] | 5 | 5 | 5 | 5 | 5 | 1 | 5 | 5 | 5 | 5 | 5 | 5 | 5 | 5 | 5 | 5 | 5 | 5 | 5 | 5 | Herbicidal effects Am (slender amaranth (Am) [17]): 5; Herbicidal effects Ec (barnyardgrass (Ec) [18]): 5; Herbicidal effects Ci (rice flatsedge (Ci) [19]): 5; Herbicidal effects Di (Diaitaria ciliaris (Di)): 5; Herbicidal effects Ch [20]: 5; Herbicidal effects Po (pale smartweed (Po) [21]): 5; Herbicidal effects Am (slender amaranth (Am) [22]): 5; Herbicidal effects Se (green foxtail (Se) [23]): 5; Herbicidal effects Ch [24]: 5; Herbicidal effects Po (pale smartweed (Po) [25]): 5; Herbicidal effects Ab (China jute (Ab) [26]): 5; Herbicidal effects Am (slender amaranth (Am) [27]): 5; Herbicidal effects Se (green foxtail (Se) [28]): 5; Herbicidal effects Ch [29]: 5; Herbicidal effects Po (pale smartweed (Po) [30]): 5; Herbicidal effects Ab (China jute (Ab) [31]): 5; Phytotoxicity Tr (wheat (Tr)): 1; Phytotoxicity Ze (corn (Ze)): 1; Phytotoxicity Go (cotton (Go)): 0 |
| CON=C(C)c1cc(-c2ccc(C(F)(F)F)n(C)c2=O)c(F)cc1Cl [Compound 1-192] | 5 | 5 | 5 | 5 | 5 | 1 | 5 | 5 | 5 | 5 | 5 | 5 | 5 | 5 | 5 | 5 | 5 | 5 | 5 | 5 | Herbicidal effects Am (slender amaranth (Am) [17]): 5; Herbicidal effects Ec (barnyardgrass (Ec) [18]): 5; Herbicidal effects Ci (rice flatsedge (Ci) [19]): 5; Herbicidal effects Di (Diaitaria ciliaris (Di)): 5; Herbicidal effects Ch [20]: 5; Herbicidal effects Po (pale smartweed (Po) [21]): 5; Herbicidal effects Am (slender amaranth (Am) [22]): 5; Herbicidal effects Se (green foxtail (Se) [23]): 5; Herbicidal effects Ch [24]: 5; Herbicidal effects Po (pale smartweed (Po) [25]): 5; Herbicidal effects Ab (China jute (Ab) [26]): 5; Herbicidal effects Am (slender amaranth (Am) [27]): 5; Herbicidal effects Se (green foxtail (Se) [28]): 5; Herbicidal effects Ch [29]: 5; Herbicidal effects Po (pale smartweed (Po) [30]): 5; Herbicidal effects Ab (China jute (Ab) [31]): 5; Phytotoxicity Tr (wheat (Tr)): 2; Phytotoxicity Ze (corn (Ze)): 2; Phytotoxicity Go (cotton (Go)): 0 |
